# Reference: patent US4440904A, “Nonapeptide anti-secretory agents” (American Home Products Corporation, priority 1983, dated 1984)
# Bridge positions count the residues as written; N and C are the ends. Square brackets hold non-standard residues; d marks the D form. Peptide text beside a SMILES is read from it.
# Columns and labels:
# growth hormone (GH) = experiment: Growth hormone suppression in arginine-stimulated, Nembutal-anesthetized rats (GH by radioimmunoassay); format: in vivo, rat; conditions: for GH: albino male rats, time 15 minutes, arginine stimulation, saline control 90 ± 14, *p <0.01
# Procedure: The product of the preceding example illustrates the activity of the compounds of this invention for growth hormone suppression in the following standard procedure:
# Albino male rats are administered Nembutal intraperitoneally at a dose of 50 milligrams per kilogram. Fifteen minutes later a subcutaneous injection of the compound of Example 2 or physiological saline (control) is administered. Ten minutes later 0.5 milliliters of arginine (300 milligrams per milliliter, pH 7.2) is injected into the heart. Five minutes after receipt of the arginine the rats are decapitated and blood is collected into trasylol-EDTA. An appropriate aliquot is assayed for growth hormone (GH) by radioimmunoassay.
# total acid output = experiment: Gastric anti-secretory activity in pylorus-ligated rats; format: in vivo, rat; conditions: male Sprague-Dawley rats, pyloric ligation, 2 milligram per kilogram subcutaneous, four-hour test period
# Procedure: Male Charles River rats of Sprague-Dawley strain and 190 to 240 grams body weight are food deprived for 24 hours with water ad libitum until the test. Groups of ten rats each are assigned to either control or drug treatment. Pyloric ligation was performed under ether anesthesia through a midline laparotomy, and either control vehicle (0.25 methylcellulose) or drug in control vehicle was administered subcutaneously. The rats are sacrificed by CO2 asphyxiation four hours after pyloric ligation. The stomachs are removed and the gastric contents emptied into graduated centrifuge tubes. The gastric samples are centrifuged for 20 minutes and those obviously contaminated by food, blood or feces are discarded. The volume of gastric fluid is recorded and the acid concentration of 1.0 milliliter sample aliquots is measured by electrometric titration to pH 7.0 with 0.1 N NaOH. The calculated product of gastric volume (ml/4 hr) and acid concentration (mEq/L) estimates the total acid output (TAO, mEq/4 hr) over the four-hour test period.
Compound,GH (growth hormone (GH); dose 200 μg/kg subcutaneous),"GH (growth hormone (GH); dose 1,000 μg/kg subcutaneous)","growth hormone suppression potency compared with somatostatin (growth hormone (GH); rats, subcutaneous)",decrease of total acid output (total acid output)
"C[C@H](N)C(=O)NCC(=O)N[C@H]1CSSC[C@@H](C(=O)O)NC(=O)[C@H](CO)NC(=O)[C@H]([C@@H](C)O)NC(=O)[C@H](Cc2ccccc2)NC(=O)[C@H]([C@@H](C)O)NC(=O)[C@H](CCCCN)NC(=O)[C@H](Cc2c[nH]c3ccccc23)NC(=O)[C@H](Cc2ccccc2)NC(=O)[C@H](Cc2ccccc2)NC(=O)[C@H](CC(N)=O)NC(=O)[C@H](CCCCN)NC1=O [Somatostatin, reference compound]",34 ± 3 ng/mL,,,
"C[C@@H](O)[C@@H]1NC(=O)[C@H](CCCCN)NC(=O)[C@@H](Cc2c[nH]c3ccccc23)NC(=O)[C@H](Cc2ccccc2)NC(=O)[C@@H](NC(=O)[C@H](Cc2ccc(O)cc2)NC(=O)[C@@H](N)Cc2c[nH]cn2)CSSC[C@@H](C(=O)N[C@@H](Cc2ccccc2)C(=O)O)NC1=O [Example 2, L-Histidyl-L-tyrosyl-L-cysteinyl-L-phenylalanyl-D-tryptophyl-L-lysyl-L-threonyl-L-cysteinyl-L-phenylalanine cyclic (3-8) disulfide] (H-HYCF[dW]KTCF-OH; disulfide 3-8)",31 ± 10 ng/mL,41 ± 8 ng/mL,substantially equipotent with somatostatin,73%
